Assay results reported in patent US20160303116A1, “TREATMENT OF MULTIPLE SCLEROSIS WITH A 1,2,4-TRIAZOLO [1,5A] PYRIDINE DERIVATIVE” (CEPHALON, INC., priority 2013, published 2016).

Key:
PLP-induced EAE [1] = test: PLP-induced EAE mouse model (relapsing-remitting), clinical signs; assay type: in vivo, SJL/J mice; details: for Mortality: dead/total, to day 60; for Incidence: sick/total
[2] = parameters: species or system mice; details: mouse, in vivo
Experimental: PTX was injected intraperitoneally on the day of induction and 48 hours later at 100 ng/0.2 ml/mouse. […] All animals were monitored daily for clinical signs from the tenth day post-EAE induction until day 30. Scoring of EAE clinical signs was recorded on observations cards according to the grading system described herein.

in vivo = test: in vivo; parameters: species or system male beagle dogs; details: dog, po
PLP-induced EAE [3] = test: Ex vivo blinded pathology scoring in PLP-induced EAE; parameters: species or system SJL/J mice; details: 100 mg/kg dose; p<0.05; data not shown
Experimental: Two transverse sections from each cervical and lumbar intumescence (cervico-thoracic and lumbo-sacral vertebral segments) were evaluated. Histological evaluation was performed on 4 μm thick sections stained with hematoxylin-eosin (H&E), Luxol fast blue periodic acid-Schiff (LFB/PAS) and Bielschowsky silver impregnation to assess inflammation, demyelination and axonal pathology. Histological sections were scored blind. Inflammation was evaluated for both gray and white matter, demyelination was evaluated within white matter only, and axonal injury was evaluated within the white matter. Scores from both cervico-thoracic, and lumbosacral sections, respectively, were averaged to obtain the average inflammation score and demyelination scores. The most severe area of demyelination for each section was used to evaluate axonal pathology. […] The percentage axonal loss was determined by subtracting the number of points crossing axons subtracted by the total number of points of the stereological grid, divided by the total number of points of the stereological grid.

JAK2 = JAK2 (Homo sapiens, UniProt O60674); details: statement with reference to earlier filings; cited from earlier work
Chain of JAK2 (O60674 whole entry, species assumed): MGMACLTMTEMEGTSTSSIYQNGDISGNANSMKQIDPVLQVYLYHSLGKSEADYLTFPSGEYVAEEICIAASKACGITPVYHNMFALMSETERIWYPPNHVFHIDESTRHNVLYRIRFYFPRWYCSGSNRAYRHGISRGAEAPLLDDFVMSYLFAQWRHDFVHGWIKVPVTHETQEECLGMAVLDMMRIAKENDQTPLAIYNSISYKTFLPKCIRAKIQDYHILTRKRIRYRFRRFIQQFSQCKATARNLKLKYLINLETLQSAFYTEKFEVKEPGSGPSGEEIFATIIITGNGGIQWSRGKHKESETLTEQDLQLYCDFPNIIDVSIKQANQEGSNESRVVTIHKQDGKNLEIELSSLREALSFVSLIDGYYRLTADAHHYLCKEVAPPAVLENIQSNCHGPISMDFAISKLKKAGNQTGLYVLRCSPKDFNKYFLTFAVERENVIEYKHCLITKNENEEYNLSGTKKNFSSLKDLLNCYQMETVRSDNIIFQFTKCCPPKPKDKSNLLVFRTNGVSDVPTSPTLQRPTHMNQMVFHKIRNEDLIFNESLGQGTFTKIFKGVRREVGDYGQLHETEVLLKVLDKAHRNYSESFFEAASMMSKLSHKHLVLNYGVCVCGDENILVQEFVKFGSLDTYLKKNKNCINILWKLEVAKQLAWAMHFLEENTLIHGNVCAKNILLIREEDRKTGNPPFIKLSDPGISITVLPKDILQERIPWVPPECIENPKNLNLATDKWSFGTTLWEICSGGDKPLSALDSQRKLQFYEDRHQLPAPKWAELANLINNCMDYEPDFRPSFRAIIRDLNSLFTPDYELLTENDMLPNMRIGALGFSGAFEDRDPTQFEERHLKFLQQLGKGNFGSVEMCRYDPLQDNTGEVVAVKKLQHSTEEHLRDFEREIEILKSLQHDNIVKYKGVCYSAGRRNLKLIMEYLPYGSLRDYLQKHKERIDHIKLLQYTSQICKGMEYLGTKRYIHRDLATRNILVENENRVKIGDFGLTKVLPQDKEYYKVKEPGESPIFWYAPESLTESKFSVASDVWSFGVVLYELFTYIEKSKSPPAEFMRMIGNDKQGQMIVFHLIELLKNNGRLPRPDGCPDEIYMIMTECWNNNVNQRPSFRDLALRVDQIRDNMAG

SCH-induced EAE = SCH-induced EAE mouse model (acute), clinical signs; assay type: in vivo, (Balb/c×SJL) F1 (CSFL) mice; details: for GMS reduction / MMS reduction: vs vehicle
MOG-induced EAE [4] = test: MOG-induced EAE mouse model of MS, clinical signs; assay type: in vivo, C57Bl/6 mice; details: for Percent Inhibition-1: inhibition according to incidence vs vehicle; for Onset (of disease): no EAE counted as 31 days; for Percent Inhibition-3: reduction of GMS vs vehicle; for Percent Inhibition-2: reduction of MMS vs vehicle; for Incidence: sick/total
MOG-induced EAE [5] = test: Histological scoring of spinal cords from MOG-induced EAE mice (inflammation, demyelination); assay type: in vivo, C57Bl/6 mice; details: 30 and 55 mg/kg twice a day and 110 mg/kg once a day; range over groups
Excerpt: At the end of the observation period (day 30) the mice of the treatment groups were necropsied. The mice were deeply anesthetized with isoflourane and air and transcardially perfused, initially with a flushing solution (saline with heparin) until the perfusate was bloodless and then flushed with 4% buffered formalin. The vertebral columns (from the cervical region to the lumbar region) of each of the mice were dissected. The vertebral column was isolated by cutting away as much muscle as possible and sectioned distally at the last rib. The brain and the vertebral column were preserved in 4% buffered formalin.
Two transverse sections from each cervical and lumbar intumescence (cervico-thoracic and lumbo-sacral vertebral segments) were evaluated. […] Histological sections were scored blind. Inflammation was evaluated for both gray and white matter, demyelination was evaluated within white matter only, and axonal injury was evaluated within the white matter. […] The percentage axonal loss was determined by subtracting the number of points crossing axons subtracted by the total number of points of the stereological grid, divided by the total number of points of the stereological grid.
Two transverse sections from each cervical and lumbar intumescence (cervico-thoracic and lumbo-sacral vertebral segments) were evaluated. […]

[6] = 110 mg/kg orally once a day, vs vehicle
[7] = 110 mg/kg orally twice a day (so in the source)

CN1CCN(c2cccc(Nc3nc4c(-c5ccc(S(C)(=O)=O)cc5)cccn4n3)c2)CC1 [Compound A, [8-(4-methanesulfonyl-phenyl)-[1,2,4]triazolo[1,5-a]pyridin-2-yl]-[3-(4-methyl-piperazin-1-yl)-phenyl]-amine]
GMS (1st and 2nd relapse) (PLP-induced EAE [1]; 30 mg/kg orally twice a day): 1.3 ± 0.9 | Mortality (PLP-induced EAE [1]; 30 mg/kg orally twice a day): 0/15 | Incidence (PLP-induced EAE [1]; 30 mg/kg orally twice a day): 15/15 | reduction in overall mean clinical scores compared to vehicle (FIG. 4) (PLP-induced EAE [1]; 30 mg/kg twice daily): 25.9% | reduction in clinical score over that of vehicle (PLP-induced EAE [1]; 60 mg/kg once daily (data not shown)): 20.1% | GMS (1st and 2nd relapse) (PLP-induced EAE [1]; 60 mg/kg orally once a day): 1.4 ± 0.8 | Mortality (PLP-induced EAE [1]; 60 mg/kg orally once a day): 0/15 | Incidence (PLP-induced EAE [1]; 60 mg/kg orally once a day): 15/15 | GMS (1st and 2nd relapse) (PLP-induced EAE [1]; 60 mg/kg orally twice a day): 0.8 ± 0.4 | Mortality (PLP-induced EAE [1]; 60 mg/kg orally twice a day): 0/15 | Incidence (PLP-induced EAE [1]; 60 mg/kg orally twice a day): 15/15 | reduction in overall mean clinical scores compared to vehicle (FIG. 4) (PLP-induced EAE [1]; 60 mg/kg twice daily): 49.9% | reduction in clinical score over that of vehicle (PLP-induced EAE [1]; 100 mg/kg once daily (data not shown)): 54.9% | GMS (1st and 2nd relapse) (PLP-induced EAE [1]; 100 mg/kg orally once a day): 0.9 ± 0.5 | Mortality (PLP-induced EAE [1]; 100 mg/kg orally once a day): 0/15 | Incidence (PLP-induced EAE [1]; 100 mg/kg orally once a day): 15/15 | GMS (1st and 2nd relapse) (PLP-induced EAE [1]; 100 mg/kg orally twice a day): 0.3 ± 0.3 | Mortality (PLP-induced EAE [1]; 100 mg/kg orally twice a day): 0/15 | Incidence (PLP-induced EAE [1]; 100 mg/kg orally twice a day): 10/15 | activity in the first relapse (PLP-induced EAE [1]; 100 mg/kg twice a day): 97.6% | activity in the second relapse (PLP-induced EAE [1]; 100 mg/kg twice a day): 85.9% | reduction in overall mean clinical scores compared to vehicle (FIG. 4) (PLP-induced EAE [1]; 100 mg/kg twice daily): 86.1% | exposures associated with efficacy [2]: 2000 to 4000 ng/mL | dose relation of Cmax and AUC (in vivo; 30 mg/kg): linear, dose-related increases | Cmax (in vivo; male, beagle, 100 mg/kg): 1760 ng/mL | reduction of inflammation (H&E staining) (PLP-induced EAE [3]): significance in the reduction of inflammation | inhibition of JAK2 (JAK2): potent | Clinical score reduction compared to vehicle (FIG. 3) (SCH-induced EAE; 30 mg/kg orally twice a day): 37.3% | Duration (of disease) (SCH-induced EAE; 30 mg/kg orally twice a day): 8.2 ± 3.3 days | Onset (of disease) (SCH-induced EAE; 30 mg/kg orally twice a day): 16.2 ± 2.0 days | GMS reduction (SCH-induced EAE; 30 mg/kg orally twice a day): 37.3% | MMS reduction (SCH-induced EAE; 30 mg/kg orally twice a day): 17.5% | Clinical score reduction compared to vehicle (FIG. 3) (SCH-induced EAE; 60 mg/kg orally twice a day): 58.3% | Duration (of disease) (SCH-induced EAE; 60 mg/kg orally twice a day): 8.4 ± 4.2 days | Onset (of disease) (SCH-induced EAE; 60 mg/kg orally twice a day): 16.4 ± 3.0 days | GMS reduction (SCH-induced EAE; 60 mg/kg orally twice a day): 58.3% | MMS reduction (SCH-induced EAE; 60 mg/kg orally twice a day): 30% | Mortality (SCH-induced EAE; range over groups treated with Compound A, vehicle 40%): 20-80% | Duration (of disease) (MOG-induced EAE [4]; 30 mg/kg orally twice a day): 3.7 ± 6.1 days | GMS (group mean score) (MOG-induced EAE [4]; 30 mg/kg orally twice a day): 0.2±0.4 | MMS (mean maximal score) (MOG-induced EAE [4]; 30 mg/kg orally twice a day): 0.7±1.0 | Mortality (MOG-induced EAE [4]; 30 mg/kg orally twice a day, dead/total, to day 30): 0/15 | Percent Inhibition-1 (MOG-induced EAE [4]; 30 mg/kg orally twice a day): 53.3% | Onset (of disease) (MOG-induced EAE [4]; 30 mg/kg orally twice a day): 23.7 ± 8.2 days | Percent Inhibition-3 (MOG-induced EAE [4]; 30 mg/kg orally twice a day): 90.5% | Percent Inhibition-2 (MOG-induced EAE [4]; 30 mg/kg orally twice a day): 79.4% | Incidence (MOG-induced EAE [4]; 30 mg/kg orally twice a day, to day 30): 7/15 | reduction in clinical scores compared to vehicle (FIG. 1) (MOG-induced EAE [4]; 30 mg/kg orally twice daily): 90.5% | Duration (of disease) (MOG-induced EAE [4]; 55 mg/kg orally twice a day): 0.2 ± 0.8 days | GMS (group mean score) (MOG-induced EAE [4]; 55 mg/kg orally twice a day): 0.01±0.04 | MMS (mean maximal score) (MOG-induced EAE [4]; 55 mg/kg orally twice a day): 0.1±0.3 | Mortality (MOG-induced EAE [4]; 55 mg/kg orally twice a day, dead/total, to day 30): 0/15 | Percent Inhibition-1 (MOG-induced EAE [4]; 55 mg/kg orally twice a day): 93.3% | Onset (of disease) (MOG-induced EAE [4]; 55 mg/kg orally twice a day): 30.5 ± 2.1 days | Percent Inhibition-3 (MOG-induced EAE [4]; 55 mg/kg orally twice a day): 99.5% | Percent Inhibition-2 (MOG-induced EAE [4]; 55 mg/kg orally twice a day): 97.1% | Incidence (MOG-induced EAE [4]; 55 mg/kg orally twice a day, to day 30): 1/15 | reduction in clinical scores compared to vehicle (FIG. 1) (MOG-induced EAE [4]; 55 mg/kg orally twice daily): 99.5% | GMS reduction (MOG-induced EAE [4]; [6]): 98.5% | MMS reduction (MOG-induced EAE [4]; [6]): 97.1% | reduction in clinical score over that of vehicle (FIG. 1) (MOG-induced EAE [4]; 110 mg/kg orally once daily): 98.5% | Duration (of disease) (MOG-induced EAE [4]; [7]): 0.5 ± 2.1 days | GMS (group mean score) (MOG-induced EAE [4]; [7]): 0.03 ± 0.1 | MMS (mean maximal score) (MOG-induced EAE [4]; [7]): 0.1 ± 0.3 | Mortality (MOG-induced EAE [4]; 110 mg/kg orally twice a day (so in the source), dead/total, to day 30): 0/15 | Percent Inhibition-1 (MOG-induced EAE [4]; [7]): 93.3% | Onset (of disease) (MOG-induced EAE [4]; [7]): 30.5 ± 2.1 days | Percent Inhibition-3 (MOG-induced EAE [4]; [7]): 98.5% | Percent Inhibition-2 (MOG-induced EAE [4]; [7]): 97.1% | Incidence (MOG-induced EAE [4]; 110 mg/kg orally twice a day (so in the source), to day 30): 1/15 | Mortality (MOG-induced EAE [4]; any of the MOG-induced EAE treatment groups): not observed | impact on clinical score over vehicle (MOG-induced EAE [4]; once daily dosing at 10 mg/kg, 30 mg/kg and 60 mg/kg (data not shown)): no significant impact over vehicle | reduction of demyelination over vehicle (LFB/PAS) (MOG-induced EAE [5]): 17.3%-23.9% | reduction of spinal inflammation over vehicle (H&E) (MOG-induced EAE [5]): 41.6%-57.5%
